Consider seven compounds from ChEMBL document CHEMBL3227988, “Synthesis and antiviral activities of arabinofuranosyl-5-ethylpyrimidine nucleosides. Selective antiherpes activity of 1-(beta-D-arabinofuranosyl)-5-ethyluracil” (J Med Chem, 1979).

Values after ≈ are worked out from the molar mass of the structure shown. Active and inactive are the calls of the source. The rule behind the calls is not given here. Some results are limits rather than exact numbers.

Assay [1] concerns Vaccinia virus. In words: Antiviral activity against Vaccinia virus infected in human skin fibroblast cells assessed as inhibition of virus-induced cytopathogenicity treated immediately after virus adsorption measured 2 to 3 days after virus infection. Particulars: Orthopoxvirus vaccinia. The class given is functional. Background: Cytopathic effects are the visible damage that an infection or toxin causes in cultured cells.

For assay [2], the system named is Vaccinia virus. Kind of assay: Antiviral activity against Vaccinia virus infected in human skin fibroblast cells assessed as inhibition of virus-induced cytopathogenicity at 200 ug/ml treated immediately after virus adsorption measured 2 to 3 days after virus infection. The class given is functional, organism-based. Particulars: Orthopoxvirus vaccinia.

For the compound `Nc1ccn([C@@H]2O[C@H](CO)[C@@H](O)[C@@H]2O)c(=O)n1` [CYTARABINE], the MIC with Vaccinia virus [1] stood at 0.02 µg/mL (≈ 0.0822 µM). Same read-out and setting: with `Cc1cn([C@@H]2O[C@H](CO)[C@@H](O)[C@@H]2O)c(=O)[nH]c1=O` the figure was 2 µg/mL (≈ 7.75 µM).

As to `CCc1cn([C@@H]2O[C@H](CO)[C@@H](O)[C@@H]2O)c(=O)[nH]c1=O`, the MIC in the assay with Vaccinia virus [1] was more than 200 µg/mL. The same measure, in the same setting: with `O=c1ccn([C@@H]2O[C@H](CO)[C@@H](O)[C@@H]2O)c(=O)[nH]1` [ARAURIDINE] the figure was more than 200 µg/mL. In the case of `CCc1cn([C@H]2O[C@H](CO)[C@@H](O)[C@@H]2O)c(=O)nc1N`, in the assay with Vaccinia virus [2], the inhibition entry was “inactive”.

Regarding `CCc1cn([C@@H]2O[C@H](CO)[C@@H](O)[C@@H]2O)c(=O)nc1N`, the MIC with Vaccinia virus [1] is more than 200 µg/mL.

With `CCc1cn([C@H]2O[C@H](CO)[C@@H](O)[C@@H]2O)c(=O)[nH]c1=O`, the inhibition entry in the assay with Vaccinia virus [2] is “inactive”.
